From patent US9592226B2, “Solenopsin and derivatives, therapeutic compositions; and methods related thereto” (priority 2013, dated 2017)

Experiments:
[1] = test system: A375 (human melanoma) cells; experiment: Proliferation study, A375 cells (Coulter Counter); format: cell-based; conditions: 10 μM, 24 h, cell count vs DMSO
Method: 50,000 cells/well were plated and treated for 24 h with each compound. The first DMSO bar in each chart serves as control for (+)-solenopsin A, (−)-solenopsin A, and ceramide C2. The second DMSO bar is the control for S11-S15.
(§1) Different analogs of solenopsin were synthesized (FIG. 1) in order to explore their structure-activity relationships. The aliphatic side chains of S14 and S13 are 4 and 8 carbons longer compared to solenopsin, respectively. S11 has an 8-carbon longer side chain, as well as an extra methyl group in the 4-position of the piperidine ring. S15 has an 11-carbon side chain similar to solenopsin, but the first carbon in the side chain is hydroxylated. Also, S15 lacks the methyl group in the 2-position of the piperidine ring. All the analogs together with (−)- and (+)-solenosin A, and the isomeric mixture of the two cis-isomers of solenopsin (S12) were tested, at 10 μM, on two different human melanoma cell lines (A375 and A2058) and one murine angiosarcoma cell line (SVR) (FIG. 2). The A375 and A2058 melanoma cell lines express mutant Braf and the SVR murine angiosarcoma cell line expresses mutant Hras. One important difference between the two human melanoma cell lines is the A2058 is PTEN null, whereas A375 is not.
(§2) A375 (human melanoma), A2058 (human melanoma), or SVR (murine angiosarcoma) cells were plated at a concentration of 50,000 cells/well. The cells were treated with 10 μM of (−)-solenopsin A, (+)-solenopsin A, or analogs (S11-S15) for 24 hours, at which point cells were counted with a Coulter Counter.

[2] = test system: A2058 (human melanoma) cells; experiment: Proliferation study, A2058 cells (Coulter Counter); format: cell-based; conditions: 10 μM, 24 h, cell count vs DMSO
Source text: as §1, §2

[3] = test system: SVR (murine angiosarcoma) cells; experiment: Proliferation study, SVR cells (Coulter Counter); format: cell-based; conditions: 10 μM, 24 h, cell count vs DMSO
Source text: as §1, §2

Akt = experiment: FRET biosensor AktAR, Akt activity in NIH3T3 cells; format: cell-based, murine; conditions: 10 μM, 1 h
Method: (§3) In order to determine whether solenopsin A and analogs have similar modes of action to ceramide, a series of fluorescent biosensors were employed for the PI3K/Akt pathway. […] No significant inhibition could be seen for any of the other solenopsin analogs (FIG. 4).
(§4) PARE was generated by sandwiching full-length PDK1 between a fluorescent protein pair (FRET pair), ECFP and citrine, and a motif generated from the Lyn-kinase gene was added to the 5′-end to target the construct to raft microdomains. AktAR was generated by a fluorescent protein pair, cerulean and cpVE172, sandwiching a forkhead-associated binding domain (FHA1) and an Akt substrate domain (FOXO). PH(Akt)-citrine was constructed by attaching the yellow fluorescent protein (citrine) to the C-terminus of PH domain of Akt1, therefore the translocation of Akt PH domain can be detected by increase of yellow fluorescence at plasma membrane.
(§5) NIH3T3 cells were plated and grown to 40% confluency. […] The data was analyzed with Metafluor 6.2 software (Universal Imaging, Downingtown, Pa.). Cell regions were selected and fluorescence images were background-corrected by deducting the background (regions with no cells) from the emission intensities of CFP or YFP. […] For analysis of PH (Akt) domain translocation (PH(Akt)-citrine), the ratio of intensities of citrine at cell membrane and cytosol were calculated after background correction. […]

PDK1 = target: T1, PDK1 (Homo sapiens, UniProt O15530); experiment: FRET biosensor Lyn-PARE, PDK1 activation in membrane rafts of NIH3T3 cells; format: cell-based, murine; conditions: 10 μM, 1 h
T1 construct: PARE was generated by sandwiching full-length PDK1 between a fluorescent protein pair (FRET pair), ECFP and citrine; expressed in transfected cells; host or cells: NIH3T3
T1 sequence (O15530 1-556): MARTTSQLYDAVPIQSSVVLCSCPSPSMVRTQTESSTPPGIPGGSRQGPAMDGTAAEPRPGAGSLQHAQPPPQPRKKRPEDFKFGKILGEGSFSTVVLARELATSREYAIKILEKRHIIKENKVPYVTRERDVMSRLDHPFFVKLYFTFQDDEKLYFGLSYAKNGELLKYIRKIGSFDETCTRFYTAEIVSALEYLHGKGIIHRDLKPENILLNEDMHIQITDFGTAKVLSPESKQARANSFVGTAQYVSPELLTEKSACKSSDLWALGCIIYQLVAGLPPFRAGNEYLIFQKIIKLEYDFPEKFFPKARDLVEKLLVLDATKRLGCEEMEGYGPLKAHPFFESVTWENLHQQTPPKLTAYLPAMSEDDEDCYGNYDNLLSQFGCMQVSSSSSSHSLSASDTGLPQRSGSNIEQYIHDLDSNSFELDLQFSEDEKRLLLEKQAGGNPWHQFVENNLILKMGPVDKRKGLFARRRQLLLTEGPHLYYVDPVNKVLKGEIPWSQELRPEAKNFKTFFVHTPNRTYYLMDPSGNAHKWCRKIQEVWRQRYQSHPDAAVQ
Method: as §3, §4, §5

PH domain of Akt1 = target: T2, PH domain of Akt1 (Homo sapiens, UniProt P31749); experiment: PH(Akt)-citrine, Akt translocation in NIH3T3 cells; format: cell-based, murine; conditions: 10 μM, 1 h
T2 construct: attaching the yellow fluorescent protein (citrine) to the C-terminus of PH domain of Akt1; expressed in transfected cells; host or cells: NIH3T3
Method: as §3, §4, §5

UM-SCC1A cells = experiment: Oxygen consumption rate (Seahorse) in UM-SCC1A cells; format: cell-based, human; conditions: 10 μM, 24 h
Method: UM-SCC1A cells were plated 15,000/well and treated for 24 h with 10 μM of (+)-solenopsin A ((+) Sol. A), (−)-solenopsin A ((−) Sol. A), and solenopsin analogs S11-S15. Oxygen consumption rate (OCR) was measured as pmoles O2/minute using a Seahorse Biosciences instrument. Data shown are an average of three experiments±s.d.
At least not in Braf mutated cell lines, such as A375 and A2058. One possibility is that solenopsin, like ceramide, may also localize to mitochondria, and cause mitochondrial induced cell death. Cellular oxygen consumption rate can be indicative of mitochondrial function. Therefore, to investigate if solenopsin A and analogs do alter mitochondrial function, UM-SCC1A (human head and neck SCC) cells were then treated with 10 μM compound or the equivalent amount of DMSO and incubated for 24 hours. A SeaHorse Bioscience instrument was used to measure the oxygen consumption rate (OCR). […] Mitophagy can be one reason for decreased OCR, but further assays are needed to confirm the cause for the observed differences.
UM-SCC1A cells were plated 15,000 per well in 200 μl DMEM supplemented with 10% FBS and 1% penicillin-streptomycin in each well of a 96-well Seahorse plate and incubated overnight at 37° C. with 5% CO2. Cells were then treated with 10 μM compound or the equivalent amount of DMSO and incubated for 24 hours. OCR was measured as pmoles O2/minute using the Seahorse Biociences instrument per manufacturer's instructions. Protein amounts in each well were then quantified using the Thermo Scientific Pierce Protein Assay, per manufacturer's instructions.

A375 cells = experiment: Superoxide (ROS) by DHE fluorescence, A375 cells; format: cell-based, human; conditions: 10 μM, 24 h
Method: Cells were treated for 24 h with 10 μM of (+)-solenopsin A ((+) Sol. A), (−)-solenopsin A ((−) Sol. A), and solenopsin analogs S11-S15. Cells were trypsined and incubated for 10 min in 10 μM dihydroethedium (DHE), followed by analysis with a FACScan flow cytometer. Data shown are an average of three experiments±s.d.
A375 or SVR cells were plated in 6 cm dishes. After cells had adhered to the plates, they were treated for 24 h with 10 μM DMSO solutions of (+)-solenopsin A, (−)-solenopsin A, or analogs (S11-S15) at which time the media was aspirated. Cells were washed with 2 mL PBS then treated with 0.05% trypsin/0.53 mM EDTA (Fisher) for 3 min at RT. Cells were collected and then pelleted at 600 g for 2 min. The supernatant was aspirated and the cells were suspended in 10 uM dihydroethidium (DHE) (Life Technologies) and incubated for 10 min in the dark at RT while shaking Following this incubation, cells were kept until counting on a Becton Dickinson FACScan flow cytometer. 10,000 cells were counted and analyzed by FlowJo 7.6.4. Mean values of DHE fluorescence intensity were compared.

T2 sequence (P31749 5-108 limits assumed): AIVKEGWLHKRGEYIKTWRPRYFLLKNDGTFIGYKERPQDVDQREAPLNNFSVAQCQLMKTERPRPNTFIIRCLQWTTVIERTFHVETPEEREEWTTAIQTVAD

In the case of `CCCCCCCCCCCCCCCCCCCC1CCCC(C)N1` (centres unmarked) [Compound S13, 2-Methyl-6-nonadecylpiperidine], the antiproliferative effect [1] is reported as “lower antiproliferative effect than S12”, the antiproliferative effect [2] is reported as “lower antiproliferative effect than S12” and the antiproliferative effect [3] is reported as “lower antiproliferative effect than S12”. For the same compound, the “inhibition of Akt activity (AktAR)” value (Akt) was “some inhibition”, the “inhibition of PDK1 activation (Lyn-PARE)” value (PDK1) was “some inhibition” and the “inhibition of Akt translocation (PH(Akt)-citrine)” value (PH domain of Akt1) was “some inhibition”. The “oxygen consumption rate (OCR) compared to DMSO control” value (UM-SCC1A cells) was “slightly reduced OCR” and the “effect on superoxide levels (DHE fluorescence)” value (A375 cells) was “no effect on superoxide levels”.
